Measured values as given in patent US11571413B2, “Nicotinamide riboside treatments of domesticated meat animals” (Kansas State University Research Foundation, priority 2017, dated 2023).

Columns and labels:
finished market barrows [1] = assay: Semitendinosus muscle NAD+ content by HPLC (Example V); type: in vivo, pig; details: 30 mg/kg BW oral daily, 10 days
Description: (§1) Fourteen days prior to harvest, 20 finished market barrows (initial body weight 268 pounds) were randomly assigned to 1 of 2 treatments: 0 or 30 mg/kg body weight of nicotinamide riboside, both orally administered daily in 20 ml of Karo® Syrup. Ten days prior to harvest, pigs were restrained via a snare and treatments were administered. On day 7, barrows were subjected to a performance test where they were walked around a track at 0.88 m/s until subjective fatigue was achieved. Three days following the performance test, barrows were harvested and a portion of the semitendinosus muscle was collected within 45 minutes. These samples were analyzed for NAD+ content via HPLC methodology.

growing pigs = assay: Longissimus lumborum chop retail color stability, 6-day display (Example III); type: in vivo, pig; details: for Greater discoloration score of 0 mg/kg chops than NR chops: day 6 of display
Description: Nine growing pigs were blocked by bodyweight (BW) and placed in metabolism crates. After a 3-day acclimation period, pigs within each BW block were randomly assigned to a treatment (n=3 pigs/treatment). Treatments comprised pigs supplemented 0, 15, or 30 mg/kg BW NR for 7 days. Pigs were allowed ad libitum access to a standard growing diet and water. Treatments were administered daily at 8 a.m. by mixing NR in 20 mL of Karo® dark syrup and orally drenching the pigs. On day 0 and 3 of the trial, muscle biopsies of the LL were taken for NAD+ analysis using standard procedures. At day 7, pigs were transported to the Kansas State University Meats Laboratory and euthanized by a captive penetrating bolt to the brain, followed by exsanguination. Following harvest procedures, 3 g of the LL were collected for NAD+ analysis. Twenty-four hours after harvest, the whole LL not sampled at harvest was removed from the carcass and aged 10 days. After aging, the LL was cut into 6 chops for retail color stability analysis, including 6-day surface oxy- and metmyoglobin percentage, 6-day objective and subjective color panel evaluation, and day 4 and 6 metmyoglobin reducing ability (MRA).

finished market barrows [2] = assay: Performance test to subjective fatigue (Example V); type: in vivo, pig; details: 30 mg/kg BW oral daily; performance test on day 7, 0.88 m/s
Description: as §1

[3] = system: Fertilized Cobb 500 broiler eggs; assay: Cyclin D mRNA expression by real-time PCR (second Example VI); type: in vivo, chicken; details: 250, 500 mM or 1 M NR; hatched chicks
Description: The methods of Burnett et al. (2016) were followed with minor modifications. Briefly, nucleic acids were extracted and purified from 200 mg of the left biceps femoris muscle using Trizol (Life Technologies), followed by subjecting the nucleic acids to PureLink™ RNA
Mini Kit (Life Technologies, Carlsbad, Calif.). Total RNA concentration and 260 nm/280 nm ratio were quantified and extractions yielding RNA with a ratio greater than 1.9 were used for real-time PCR analysis. Trace genomic DNA contamination and reverse transcription were conducted on 50 ng of total RNA using a High-Capacity cDNA Reverse Transcription Kit (Life Technologies). Gene specific primers were designed, efficiencies determined, and validated for qPCR (Table 7). Complementary DNA was amplified in duplicate for each sample using PerfeCTa SYBR Green FastMix (Quanta Biosciences, Gaithersburg, Md.) and the appropriate gene specific forward and reverse primers (20 pM) in an Eppendorff Mastercycler realplex2 S PCR System (Eppendorf North America, Hauppauge, N.Y.). Thermal cycling parameters were initial heating at 50° C. for 2 min, denaturing at 95° C. for 10 min, 50 cycles of 15 s at 95.0° C., annealing at 60.5° C. for 30 s, and extension for 20 s at 68.0° C. A final dissociation step was included at 95° C. for 15 s, 60° C. for 30 s, and 95° C. for 15 s. Expression was normalized to 18S ribosomal RNA expression (ΔCt, where Ct refers to the threshold cycle), and calibrated to control chick (0 mM) mRNA expression (ΔΔCt). Gene fold change expression levels were calculated as 2^−ΔΔCt as previously described by Livak and Schmittgen (2001).

[4] = system: Fertilized Cobb 500 broiler eggs; assay: Pectoralis major succinate dehydrogenase staining intensity (second Example VI); type: in vivo, chicken; details: 250, 500 or 1,000 mM NR; hatched chicks
Description: The methods of Noel et al. (2016) were followed for succinate dehydrogenase (SDH) staining. Slides were incubated at 37° C. for 1 h in a prewarmed incubation solution containing nitro blue tetrazolium solution, phosphate buffer, and sodium succinate solution. After washing in ultrapure water 3 times for 1 min each, 5 μL of 9:1 glycerol in PBS was placed on each cryosection and they were coverslipped for imaging. All cryosections were imaged at 200× magnification using a Nikon Eclipse TI-U inverted microscope (Nikon Instruments Inc., Melville, N.Y.). Immunohistochemistry photomicrographs were collected with a DS-QiMC digital camera (Nikon Instruments Inc.) and SDH cryosections were collected with a Nikon DS-Fil color digital camera (Nikon Instruments Inc.) White light intensity was kept constant for SDH photomicrographs. All photomicrograph collection and image analyses were conducted using NIS Elements Basic Software (Nikon Instruments Inc.). Cross-sectional area (CSA) of a minimum of 1,000 muscle fibers per chick was determined as the area within the dystrophin border. The number of satellite cell was determined as nuclei co-staining for Pax 7 and Hoechst dye located at the periphery of muscle fiber. A minimum of 50 muscle fiber bundles per chick were analyzed for SDH mean intensity using the same software. […]

`NC(=O)c1ccc[n+]([C@@H]2O[C@H](CO)[C@@H](O)[C@H]2O)c1` [Nicotinamide riboside, nicotinamide riboside] was tested, and the “Increase of NAD+ in the semitendinosus muscle (tendency, P=0.09)” value (finished market barrows [1]) was 62%, the “Visual panel discoloration scores between treatments” value (growing pigs; 0, 15 and 30 mg/kg, days 1, 4 and 5 of display) was “did not differ” and the “Less surface metmyoglobin accumulation than 0 mg/kg chops (tendency)” value (growing pigs; 15 mg/kg BW, 7 days, LL chops, entire 6-day display) was 9%. For the same compound, the “Greater discoloration score of 0 mg/kg chops than NR chops” value (growing pigs; 15 mg/kg) was 41%, the “Less discoloration than 0 mg/kg chops (tendency)” value (growing pigs; 15 mg/kg, entire 6-day study) was 27% and the “More MRA than 0 mg/kg chops (tendency)” value (growing pigs; 15 mg/kg, over the entire study) was 42%. For the same compound, the “Less surface metmyoglobin than 0 mg/kg chops” value (growing pigs; 30 mg/kg BW, 7 days, LL chops, entire 6-day display) was 14%, the “Greater discoloration score of 0 mg/kg chops than NR chops” value (growing pigs; 30 mg/kg) was 39% and the “Less surface discoloration than 0 mg/kg chops” value (growing pigs; 30 mg/kg, entire 6-day study) was 30%. The “More metmyoglobin reducing ability (MRA) than 0 mg/kg chops” value (growing pigs; 30 mg/kg, over the entire study) was 64%, the “Surface discoloration of 0 mg/kg chops vs 15 and 30 mg/kg chops” value (growing pigs; days 2 and 3 of display) was “tended to have more surface discoloration” and the “Ran farther (distance) than unsupplemented barrows, numerically” value (finished market barrows [2]) was 16%. For the same compound, the “Ran longer (time to subjective fatigue) than unsupplemented barrows, numerically” value (finished market barrows [2]) was 19%, the “Cyclin D1 and 2 mRNA expression” value [3] was “no treatment effects” and the “Cyclin D3 mRNA expression, control vs all NR treatments” value [3] was “Control chicks had greater cyclin D3 expression”. The “Greater cyclin D3 mRNA expression of control chicks than NR chicks (average)” value [3] was 38% and the SDH staining intensity [4] was “no treatment effect”.
